The numbers were not newly measured in patent US20220249605A1, “Treatment of Mood and Anxiety Disorders” (Icahn School of Medicine At Mount Sinai, priority 2013, published 2022), which cites them from elsewhere.

The target of one series is T1, NPY Y2 receptor (Homo sapiens, UniProt P49146).
T1 sequence (P49146 1-381): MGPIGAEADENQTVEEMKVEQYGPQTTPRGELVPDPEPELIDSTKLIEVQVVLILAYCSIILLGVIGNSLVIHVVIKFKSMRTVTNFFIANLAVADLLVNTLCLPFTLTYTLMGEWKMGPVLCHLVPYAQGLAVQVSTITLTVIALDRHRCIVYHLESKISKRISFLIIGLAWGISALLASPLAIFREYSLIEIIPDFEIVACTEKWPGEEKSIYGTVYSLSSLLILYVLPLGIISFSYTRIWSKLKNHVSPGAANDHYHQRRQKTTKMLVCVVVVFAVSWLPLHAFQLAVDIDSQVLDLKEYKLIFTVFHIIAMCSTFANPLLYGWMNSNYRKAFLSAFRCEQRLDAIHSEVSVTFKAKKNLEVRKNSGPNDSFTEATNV
Particulars: read-out: IC50, Y2 receptor antagonist.

For series [1] the following is noted: anesthetized rats.
The target of the next series is T2, Y1 receptors (Homo sapiens, UniProt P25929).
T2 sequence (P25929 1-384): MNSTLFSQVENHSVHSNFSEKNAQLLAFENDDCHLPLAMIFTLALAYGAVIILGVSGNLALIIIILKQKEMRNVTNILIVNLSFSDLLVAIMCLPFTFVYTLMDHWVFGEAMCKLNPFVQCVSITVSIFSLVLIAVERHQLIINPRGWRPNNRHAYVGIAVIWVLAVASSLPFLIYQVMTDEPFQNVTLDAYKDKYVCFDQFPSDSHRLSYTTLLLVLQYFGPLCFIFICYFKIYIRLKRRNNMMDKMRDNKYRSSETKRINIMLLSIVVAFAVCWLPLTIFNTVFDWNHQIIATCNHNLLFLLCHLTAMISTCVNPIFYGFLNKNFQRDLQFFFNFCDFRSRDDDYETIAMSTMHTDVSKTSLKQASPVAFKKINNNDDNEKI

Series [2] concerns norepinephrine-stimulated cAMP accumulation in SK-N-MC cells. As to conditions: read-out: EC50, inhibition of norepinephrine-stimulated cAMP accumulation.
For series [3] the following is noted: anesthetized rats and dogs.

Bridge positions count the residues as written; N and C are the ends. Ends that are not written are not given here.

Take `CN(C)S(=O)(=O)c1ccc(NC(=S)N2CCC(C(O)(c3ccccc3)c3ccccc3)CC2)cc1` [CYM 9484]: the IC50 at NPY Y2 receptor is 0.019 µM. For “(Leu^31, Pro^34)-Neuropeptide Y [H-3306]”, the “Specificity (Y1 receptor)” value in the series on Y1 receptor is “Specific Y1 receptor”. Turning to “(Leu^31, Pro^34)-Neuropeptide Y [H-8575]”, the “Specificity (Y1 receptor)” value with Y1 receptor is “selective ligand for”. The “Potency in increasing blood pressure compared with NPY” value in series [1] is “showing an even higher”.

For “Tyr-Lys-Gly-(Cyclo(Glu^26-Lys^29), Pro^34)-Neuropeptide Y (25-36) (YKGREYIKLITRPRY; lactam 5-8; ends not checked) [H-3972]”, in the series with Y1 receptors, the Ki was 0.016 µM. Further, the EC50 in series [2] was 0.012 µM. For the compound (Pro^34)-Neuropeptide Y [H-8580], in the series with Y1 receptor, the “Specificity (Y1 receptor)” value is listed as “selective NPY agonist”. For the same compound, in series [3], the “Effect on blood pressure” value is on record as “increased blood” and the “Inhibitory effects on cardiac vagal action” value is “contrast, showed no”.
